Assay results published in patent publication US20240269139A1, “COMPOUNDS FOR TARGETED PROTEIN DEGRADATION OF KINASES” (DANA-FARBER CANCER INSTITUTE, INC., priority 2020, published 2024).
Read-outs that look alike come from different tables or passages of the source.

Columns and labels:
[1] = molecular target: protein kinases (human kinome) (Homo sapiens, UniProt Q9H999); format: cell-based; conditions: PANK3 (Q9H999); experiment wp152
[2] = molecular target: protein kinases (human kinome) (Homo sapiens, UniProt Q9BZX2); format: cell-based; conditions: protein UCK2 (Q9BZX2-1); experiment wp160, 8 hr; down
[3] = molecular target: T1, protein kinases (human kinome) (Homo sapiens, UniProt P78356); format: cell-based; conditions: PIP4K2B (P78356)
T1 sequence (P78356 1-416): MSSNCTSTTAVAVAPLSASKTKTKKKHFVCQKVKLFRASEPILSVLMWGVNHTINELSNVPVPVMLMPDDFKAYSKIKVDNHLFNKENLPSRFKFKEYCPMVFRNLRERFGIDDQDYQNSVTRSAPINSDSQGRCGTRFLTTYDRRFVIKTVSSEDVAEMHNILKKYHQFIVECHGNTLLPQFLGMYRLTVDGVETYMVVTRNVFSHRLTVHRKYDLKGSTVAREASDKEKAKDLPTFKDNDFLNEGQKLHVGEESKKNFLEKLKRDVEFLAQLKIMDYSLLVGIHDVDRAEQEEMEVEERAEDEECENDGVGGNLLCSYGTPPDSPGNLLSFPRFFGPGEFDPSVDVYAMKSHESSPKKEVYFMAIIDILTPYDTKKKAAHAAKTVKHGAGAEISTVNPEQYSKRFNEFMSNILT

[4] = molecular target: protein kinases (human kinome) (Homo sapiens, UniProt P45983); format: cell-based; conditions: for logFC MAPK8 (P45983): Experiment wp152
protein kinases (human kinome) (Homo sapiens, UniProt P45983), sequence (P45983 whole entry): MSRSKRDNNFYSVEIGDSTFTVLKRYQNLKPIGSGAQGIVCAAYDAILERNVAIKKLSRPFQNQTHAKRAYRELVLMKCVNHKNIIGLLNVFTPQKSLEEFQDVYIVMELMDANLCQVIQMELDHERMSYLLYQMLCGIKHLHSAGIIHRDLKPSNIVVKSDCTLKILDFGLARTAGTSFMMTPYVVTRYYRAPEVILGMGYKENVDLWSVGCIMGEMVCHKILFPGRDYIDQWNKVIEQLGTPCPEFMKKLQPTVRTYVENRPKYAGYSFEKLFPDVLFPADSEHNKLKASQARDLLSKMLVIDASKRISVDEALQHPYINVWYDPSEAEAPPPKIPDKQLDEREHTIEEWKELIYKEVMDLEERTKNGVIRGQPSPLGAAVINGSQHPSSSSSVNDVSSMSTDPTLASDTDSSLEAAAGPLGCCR

[5] = molecular target: protein kinases (human kinome) (Homo sapiens, UniProt Q96S53); format: cell-based; conditions: experiment wp147, 4 uM
protein kinases (human kinome) (Homo sapiens, UniProt Q96S53), sequence (Q96S53 whole entry): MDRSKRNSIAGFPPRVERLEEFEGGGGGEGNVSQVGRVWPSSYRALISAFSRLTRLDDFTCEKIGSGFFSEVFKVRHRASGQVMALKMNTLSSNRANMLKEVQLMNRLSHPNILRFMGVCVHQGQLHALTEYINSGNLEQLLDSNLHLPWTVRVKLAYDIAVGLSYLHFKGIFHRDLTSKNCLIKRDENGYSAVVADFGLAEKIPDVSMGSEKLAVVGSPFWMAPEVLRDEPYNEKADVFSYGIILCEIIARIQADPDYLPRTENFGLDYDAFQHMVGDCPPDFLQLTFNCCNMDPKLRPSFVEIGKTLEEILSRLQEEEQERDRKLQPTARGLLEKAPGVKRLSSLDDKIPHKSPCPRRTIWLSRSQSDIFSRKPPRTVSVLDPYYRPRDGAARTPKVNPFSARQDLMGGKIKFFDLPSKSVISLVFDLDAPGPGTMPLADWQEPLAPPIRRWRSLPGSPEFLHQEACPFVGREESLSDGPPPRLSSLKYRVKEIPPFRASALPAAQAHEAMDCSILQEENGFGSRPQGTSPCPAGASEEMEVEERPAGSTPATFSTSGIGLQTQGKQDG

[6] = molecular target: protein kinases (human kinome) (Homo sapiens, UniProt P51956); format: cell-based; conditions: experiment wp146
protein kinases (human kinome) (Homo sapiens, UniProt P51956), sequence (P51956 whole entry): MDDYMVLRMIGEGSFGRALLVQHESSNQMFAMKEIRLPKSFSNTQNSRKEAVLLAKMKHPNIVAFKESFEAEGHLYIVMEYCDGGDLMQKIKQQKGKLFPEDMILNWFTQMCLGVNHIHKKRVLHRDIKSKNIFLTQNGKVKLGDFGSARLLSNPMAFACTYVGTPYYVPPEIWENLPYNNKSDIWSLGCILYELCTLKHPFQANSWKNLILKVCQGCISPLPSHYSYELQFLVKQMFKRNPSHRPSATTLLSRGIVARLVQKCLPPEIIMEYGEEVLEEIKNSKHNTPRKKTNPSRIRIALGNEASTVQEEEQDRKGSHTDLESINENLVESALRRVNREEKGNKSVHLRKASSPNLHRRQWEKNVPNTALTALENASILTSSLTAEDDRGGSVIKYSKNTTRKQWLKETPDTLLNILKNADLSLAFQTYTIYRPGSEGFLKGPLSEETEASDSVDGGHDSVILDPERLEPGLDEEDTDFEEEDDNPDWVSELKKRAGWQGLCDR

[7] = molecular target: protein kinases (human kinome) (Homo sapiens, UniProt Q99640); format: cell-based; conditions: experiment wp131
protein kinases (human kinome) (Homo sapiens, UniProt Q99640), sequence (Q99640 whole entry): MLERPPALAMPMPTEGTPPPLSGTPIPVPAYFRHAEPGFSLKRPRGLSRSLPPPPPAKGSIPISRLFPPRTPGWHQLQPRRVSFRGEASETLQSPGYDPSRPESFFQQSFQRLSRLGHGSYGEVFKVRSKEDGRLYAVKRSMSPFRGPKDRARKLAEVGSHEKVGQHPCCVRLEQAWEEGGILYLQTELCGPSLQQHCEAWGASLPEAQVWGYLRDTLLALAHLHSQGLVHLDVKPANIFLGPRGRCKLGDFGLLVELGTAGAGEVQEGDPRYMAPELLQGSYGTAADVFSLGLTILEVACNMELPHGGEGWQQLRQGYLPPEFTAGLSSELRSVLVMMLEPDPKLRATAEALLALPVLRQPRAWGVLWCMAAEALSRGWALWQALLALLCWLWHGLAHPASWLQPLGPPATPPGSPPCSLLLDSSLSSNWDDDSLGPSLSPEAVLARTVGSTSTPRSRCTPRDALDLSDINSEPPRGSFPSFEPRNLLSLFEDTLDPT

[8] = molecular target: protein kinases (human kinome) (Homo sapiens, UniProt A2RU49); format: cell-based; conditions: protein HYKK (A2RU49); experiment wp117; down
protein kinases (human kinome) (Homo sapiens, UniProt A2RU49), sequence (A2RU49 whole entry): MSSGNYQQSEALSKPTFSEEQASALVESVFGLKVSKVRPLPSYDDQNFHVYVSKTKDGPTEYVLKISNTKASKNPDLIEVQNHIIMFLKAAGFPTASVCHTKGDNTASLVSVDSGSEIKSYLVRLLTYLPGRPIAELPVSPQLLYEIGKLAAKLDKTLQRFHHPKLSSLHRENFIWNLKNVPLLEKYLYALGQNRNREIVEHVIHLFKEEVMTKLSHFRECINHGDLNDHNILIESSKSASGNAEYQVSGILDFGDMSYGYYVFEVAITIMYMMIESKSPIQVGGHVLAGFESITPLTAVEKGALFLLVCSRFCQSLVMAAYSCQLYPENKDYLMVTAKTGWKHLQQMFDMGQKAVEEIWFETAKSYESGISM

[9] = molecular target: protein kinases (human kinome) (Homo sapiens, UniProt Q8TEA7); format: cell-based; conditions: experiment wp056
protein kinases (human kinome) (Homo sapiens, UniProt Q8TEA7), sequence (Q8TEA7 whole entry): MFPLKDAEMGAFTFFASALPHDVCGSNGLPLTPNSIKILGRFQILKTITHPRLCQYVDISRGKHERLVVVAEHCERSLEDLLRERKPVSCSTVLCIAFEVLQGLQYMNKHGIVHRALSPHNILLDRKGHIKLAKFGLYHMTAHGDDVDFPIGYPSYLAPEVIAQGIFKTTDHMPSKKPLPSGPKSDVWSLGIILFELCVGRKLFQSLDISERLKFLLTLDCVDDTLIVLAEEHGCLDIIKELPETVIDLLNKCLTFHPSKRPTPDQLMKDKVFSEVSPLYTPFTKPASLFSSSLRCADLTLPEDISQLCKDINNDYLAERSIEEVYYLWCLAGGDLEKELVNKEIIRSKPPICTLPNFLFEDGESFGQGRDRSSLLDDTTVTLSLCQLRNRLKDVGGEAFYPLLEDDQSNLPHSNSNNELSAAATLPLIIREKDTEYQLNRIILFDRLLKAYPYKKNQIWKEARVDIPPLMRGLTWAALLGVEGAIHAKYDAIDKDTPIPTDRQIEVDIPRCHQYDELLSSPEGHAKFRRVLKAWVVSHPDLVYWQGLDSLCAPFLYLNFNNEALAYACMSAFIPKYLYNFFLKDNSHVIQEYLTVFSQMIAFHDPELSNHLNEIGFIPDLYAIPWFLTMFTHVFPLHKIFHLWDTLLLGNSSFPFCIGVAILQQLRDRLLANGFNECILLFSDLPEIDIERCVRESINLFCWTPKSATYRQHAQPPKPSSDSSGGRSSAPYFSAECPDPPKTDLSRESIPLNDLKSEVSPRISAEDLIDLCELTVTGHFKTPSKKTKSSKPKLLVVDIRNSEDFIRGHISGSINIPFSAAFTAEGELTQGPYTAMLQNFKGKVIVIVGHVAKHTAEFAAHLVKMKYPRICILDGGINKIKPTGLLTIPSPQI

[10] = molecular target: protein kinases (human kinome) (Homo sapiens, UniProt P41743); format: cell-based; conditions: experiment wp056
protein kinases (human kinome) (Homo sapiens, UniProt P41743), sequence (P41743 whole entry): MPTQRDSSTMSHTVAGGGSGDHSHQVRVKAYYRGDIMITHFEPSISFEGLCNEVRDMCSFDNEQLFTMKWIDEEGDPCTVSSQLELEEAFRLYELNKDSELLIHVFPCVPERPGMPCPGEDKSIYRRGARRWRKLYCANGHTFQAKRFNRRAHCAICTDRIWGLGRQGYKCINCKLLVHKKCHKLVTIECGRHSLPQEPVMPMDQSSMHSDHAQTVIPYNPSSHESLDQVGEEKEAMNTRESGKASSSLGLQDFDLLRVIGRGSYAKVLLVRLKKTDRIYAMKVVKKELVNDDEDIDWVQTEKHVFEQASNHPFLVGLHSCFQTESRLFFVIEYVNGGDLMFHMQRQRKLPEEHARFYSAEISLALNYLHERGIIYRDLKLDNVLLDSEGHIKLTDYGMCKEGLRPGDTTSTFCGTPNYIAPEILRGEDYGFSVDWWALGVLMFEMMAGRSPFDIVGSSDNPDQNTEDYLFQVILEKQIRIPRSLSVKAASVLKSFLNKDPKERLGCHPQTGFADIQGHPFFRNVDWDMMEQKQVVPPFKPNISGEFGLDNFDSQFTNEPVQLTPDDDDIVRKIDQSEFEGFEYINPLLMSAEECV

[11] = molecular target: protein kinases (human kinome) (Homo sapiens, UniProt P54760); format: cell-based; conditions: experiment wp172
[12] = molecular target: protein kinases (human kinome) (Homo sapiens, UniProt Q9UK32); format: cell-based
protein kinases (human kinome) (Homo sapiens, UniProt Q9UK32), sequence (Q9UK32 whole entry): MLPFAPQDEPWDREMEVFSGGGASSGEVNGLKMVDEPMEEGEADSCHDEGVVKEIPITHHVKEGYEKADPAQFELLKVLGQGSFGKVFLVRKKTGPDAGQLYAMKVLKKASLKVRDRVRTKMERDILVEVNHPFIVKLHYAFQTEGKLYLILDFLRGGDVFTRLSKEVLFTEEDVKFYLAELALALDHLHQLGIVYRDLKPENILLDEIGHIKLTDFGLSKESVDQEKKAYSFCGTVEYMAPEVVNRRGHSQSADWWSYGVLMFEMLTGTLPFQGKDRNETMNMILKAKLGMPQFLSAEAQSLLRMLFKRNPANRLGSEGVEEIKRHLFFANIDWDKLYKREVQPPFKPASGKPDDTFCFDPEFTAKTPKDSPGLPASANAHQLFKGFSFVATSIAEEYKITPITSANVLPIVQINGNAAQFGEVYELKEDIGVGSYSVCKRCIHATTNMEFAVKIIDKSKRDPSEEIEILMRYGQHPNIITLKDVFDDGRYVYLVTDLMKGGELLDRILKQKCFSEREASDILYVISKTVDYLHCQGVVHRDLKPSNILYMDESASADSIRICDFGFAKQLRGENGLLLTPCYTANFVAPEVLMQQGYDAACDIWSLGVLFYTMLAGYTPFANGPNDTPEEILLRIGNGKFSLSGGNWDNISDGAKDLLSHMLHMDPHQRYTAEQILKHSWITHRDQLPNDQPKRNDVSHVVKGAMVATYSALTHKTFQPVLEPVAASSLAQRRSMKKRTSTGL

MOLT-4 cells = test: RNA sequencing of kinase transcript levels; format: cell-based, H. sapiens; conditions: MOLT-4, 1 μM
Method: With long treatment times (>8 h), it is difficult to distinguish direct degradation of targets from down-regulation caused by downstream or secondary effects.
MOLT-4 cells were seeded into 24 T25 flasks with 10 mL of culture at 10^6 cells/mL prior to compound treatment. […] Cells were harvested using CellStripper™ Dissociation reagent (Corning®), washed twice with PBS, and followed by snap freezing in liquid nitrogen. Total RNA was isolated from cell pellets using the RNeasy® Mini Kit (Qiagen®) following the manufacturer's directions. For quality control, RNA concentration and rRNA ratio (28S/18S) were measured using an Agilent 2100 Bioanalyzer. Samples were submitted to BGI Group for RNA-seq library preparation and Next Generation Sequencing using the BGISEQ-500 platform producing 50 base-pair single-end reads. Sequencing reads were aligned to the human genome (BSgenome.Hsapiens.UCSC.hg19 Bioconductor package, using splicedAlignment=FALSE) and quantified at the level of genes (TxDb.Hsapiens.UCSC.hg19.knownGene Bioconductor package) using the QuasR package with default parameters (Gaidatzis et al., Bioinformatics 31(7):1130-1132 (2015)). Expressed genes were identified using the edgeR Bioconductor package (Robinson et al., Bioinformatics 26(1):139-140 (2010)).

protein kinases (human kinome) (Homo sapiens, UniProt Q9H999), sequence (Q9H999 whole entry): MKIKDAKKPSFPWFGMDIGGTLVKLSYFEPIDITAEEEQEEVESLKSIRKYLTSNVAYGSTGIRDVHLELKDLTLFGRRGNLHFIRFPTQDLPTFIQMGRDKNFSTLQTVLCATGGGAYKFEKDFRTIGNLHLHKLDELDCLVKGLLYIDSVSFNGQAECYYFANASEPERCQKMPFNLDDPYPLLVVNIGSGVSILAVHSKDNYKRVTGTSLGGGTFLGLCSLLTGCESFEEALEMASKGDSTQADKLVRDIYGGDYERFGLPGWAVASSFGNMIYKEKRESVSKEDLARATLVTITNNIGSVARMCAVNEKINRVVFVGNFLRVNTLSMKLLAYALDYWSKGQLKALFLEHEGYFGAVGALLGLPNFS

Question: Which results are given for Cc1ccc(NC(=O)c2cccc(C(F)(F)F)c2)cc1N1Cc2cnc(Nc3ccc(N4CCN(Cc5cn(CCCCCOc6cccc7c6C(=O)N(C6CCC(=O)NC6=O)C7=O)nn5)CC4)nc3)nc2N(C)C1=O (stereo not drawn) [DB0646, N-(3-(7-((6-(4-((1-(5-((2-(2,6-Dioxopiperidin-3-yl)-1,3-dioxoisoindolin-4-yl)oxy)pentyl)-1H-1,2,3-triazol-4-yl)methyl)piperazin-1-v)pyridin-3-yl)amino)-1-methyl-2-oxo-1,4-dihydropyrimido[4,5-d]pyrimidin-3(2H)-yl)-4-methylphenyl)-3-(trifluoromethyl)benzamide]?
Answer: logFC [1]: −0.3534; logFC UCK2 [2]: −0.3246; logFC ([3]; experiment wp045): −1.296; logFC ([3]; experiment wp103): −0.6848; logFC ([3]; experiment wp107): −1.024; logFC ([3]; experiment wp117): −1.027; logFC ([3]; experiment wp152): −1.147; logFC ([3]; experiment wp160, 4 hr): −0.5025; logFC ([3]; experiment wp160, 8 hr): −0.8848; logFC MAPK8 (P45983) ([4]; direction down): −0.8433; logFC MAPK8 (P45983) ([4]; direction of change down): −0.8433; logFC MAPK8 (P45983-1) ([4]; Experiment wp172, direction down): −0.376; logFC MAPK8 (P45983-1) ([4]; experiment wp172, direction of change down): −0.376

Question: How did the “logFC TESK2 (Q96S53-1)” value ([5]; direction of change down) turn out when CC(C)(C)c1nc(-c2cccc(NS(=O)(=O)c3c(F)cccc3F)c2F)c(-c2ccnc(NCCOCCNC(=O)CCOCCOCCNc3cccc4c3C(=O)N(C3CCC(=O)NC3=O)C4=O)n2)s1 (stereo not drawn) [DD.03.106] was run?
Answer: −0.3831

Question: And the “logFC TESK2” value ([5]; protein TESK2 (Q96S53-1), down)?
Answer: −0.3831

Question: For Cc1cc(Nc2ncc(Br)c(Nc3cccc(F)c3C(N)=O)n2)ccc1S(=O)(=O)NCCOCCOCCOCCOCCNc1cccc2c1C(=O)N(C1CCC(=O)NC1=O)C2=O (stereo not drawn) [TMX.02.174], which “logFC NEK3 (P51956)” value ([6]; direction of change down) is on record?
Answer: −0.8497

Question: What about the “logFC NEK3” value ([6]; protein NEK3 (P51956), down) of the same compound?
Answer: −0.8497

Question: What does the source list for Cn1c(=O)c(-c2c(Cl)cccc2Cl)cc2cnc(Nc3ccc(OCCNC(=O)CCCCCCNC(=O)COc4cccc5c4C(=O)N(C4CCC(=O)NC4=O)C5=O)cc3)nc21 (stereo not drawn) [SB1.G.192.1]?
Answer: logFC PKMYT1 (Q99640) ([7]; direction of change down): −0.7301; logFC PKMYT1 ([7]; protein PKMYT1 (Q99640), down): −0.7301

Question: Which “logFC HYKK” value [8] does the source give for Cc1ncsc1-c1ccc([C@H](C)NC(=O)[C@@H]2C[C@@H](O)CN2C(=O)[C@@H](NC(=O)CCCCCN2CCN(c3ccc(Nc4ncc5scc(-c6cccc(NS(C)(=O)=O)c6)c5n4)cc3)CC2)C(C)(C)C)cc1 [RSS0680, (2S,4R)-1-((S)-3,3-Dimethyl-2-(6-(4-(4-((7-(3-(methylsulfonamido)phenyl)thieno[3,2-d]pyrimidin-2-yl)amino)phenyl)piperazin-1-yl)hexanamido)butanoyl)-4-hydroxy-N—((S)-1-(4-(4-methylthiazol-5yl)phenyl)ethyl)pyrrolidine-2-carboxamide] here?
Answer: −0.3476

Question: For C=CCn1c(=O)c2cnc(Nc3ccc(N4CCN(CCCNc5cccc6c5C(=O)N(C5CCC(=O)NC5=O)C6=O)CC4)cc3)nc2n1-c1cccc(C(C)(C)O)n1 (stereo not drawn) [ZNL.02.096], which “logFC TBCK (Q8TEA7)” value ([9]; direction of change down) is on record?
Answer: −0.3334

Question: What about the “logFC TBCK” value ([9]; protein TBCK (QSTEA7), down) of the same compound?
Answer: −0.3334

Question: What about the “logFC PRKCI (P41743)” value ([10]; direction of change down) of the same compound?
Answer: −0.5365

Question: What about the “logFC PRKCI” value ([10]; protein PRKCI (P41743), down) of the same compound?
Answer: −0.5365

Question: For CC(C)S(=O)(=O)c1ccccc1Nc1nc(Nc2ccc(N3CCN(CCOCCNC(=O)CNc4cccc5c4C(=O)N(C4CCC(=O)NC4=O)C5=O)CC3)cc2)ncc1Cl (stereo not drawn) [SK.3.91], which “logFC EPHB4 (P54760)” value ([11]; direction of change down) is on record?
Answer: −0.5059

Question: What about the “logFC EPHB4” value ([11]; protein EPHB4 (P54760), down) of the same compound?
Answer: −0.5059

Question: What about the “logFC RPS6KA6 (Q9UK32)” value ([12]; Experiment wp105, direction of change down) of the same compound?
Answer: −0.83

Question: And the “logFC RPSGKA6” value ([12]; protein RPSGKA6 (Q9UK32), experiment wp105, down)?
Answer: −0.83

Question: CC(C)S(=O)(=O)c1ccccc1Nc1nc(Nc2ccc(N3CCN(CCOCCNC(=O)CNc4cccc5c4C(=O)N(C4CCC(=O)NC4=O)C5=O)CC3)cc2)ncc1Cl (stereo not drawn) [SK-3-91] was tested. Which transcript levels (MOLT-4 cells; 8- and 12-h time points) did it give?
Answer: complete transcriptional collapse

Question: What about the transcript levels (MOLT-4 cells; up until the 4-h time point) of the same compound?
Answer: largely unchanged
